Where “and” joins values, the source holds several entries; their conditions need not be identical. Identical values can stand only once.
What was measured:
[1] = system: circulating leukocytes; test: In Vivo Model for Leukocytosis; set-up: species or system Balb/c mice; conditions: bled 1-1.5 h after administration
Excerpt: In Vivo Model for Leukocytosis
Leukocytosis is the increase in circulating white blood cells (leukocytes). This can be brought about by preventing leukocyte binding to counter-receptor adhesion molecules expressed on high endothelial venules. This cell adhesion occurs between immunoglobulin superfamily molecules and integrins. Relevant examples of these paired interactions include […] Adhesion Molecule-1 and AlphaL Beta2 integrin, Vascular Cell Adhesion Molecule-1 and α4β1 integrin, and Mucosal Addressin Cell Adhesion Molecule-1 and α4β7 integrin, respectively.
In this model, a compound that antagonizes these leukocyte-endothelial interactions will cause an increase in circulating leukocytes, defined as leukocytosis, as measured at 1-1.5 h post-administration. This leukocytosis is indicative that normal lymphocyte or leukocyte emigration from the peripheral circulation was prevented. Similar emigration of cells out of the circulation into inflamed tissues is responsible for the progression and maintainance of the inflammatory state. Leukocytosis is an indication that lymphocyte and leukocyte extravasation is prevented, and is predictive of general anti-inflammatory activity.
One week prior to being tested, 7-10 week old female Balb/c mice, n=8 per group, were bled and randomized according to leukocyte counts. One week later, the mice were adminstered test compound orally or subcutaneously and then bled 1-1.5 h after drug administration, approximately 1 h after the peak blood concentration of the compound occurred. Whole blood, 250-350 microliters, was collected from each mouse into potassium-EDTA serum collection tubes (Becton-Dickenson) and mixed to prevent clotting.
Cell counts and differential counts on the whole blood preparation were performed using an Advia 120 Hematology System (Bayer Diagnostics). Cell counts as total leukocytes and as total lympohcytes were made and compared to counts made from mice dosed with vehicle only. Data were reported as percent of vehicle control for lymphocyte counts and total leukocyte counts.
Statistical analyses were performed using ANOVA with Dunnet's multiple comparison test.

[2] = system: DSS induced colitis; test: Dextran Sulfate Sodium (DSS) Induced Colitis; type: in vivo, Balb/c female mice and C57Black/6 mice
Excerpt: In Vivo Model for Colitis: Dextran Sulfate Sodium (DSS) Induced Colitis Inflammatory bowel diseases such as ulcerative colitis and Crohn's disease are characterized by diminished intestinal barrier function, apparent inflammatory damage that may include erosive loss of intestinal mucosa, and inflammatory infiltrates in the mucosa and submucosa. […] Among the many possible chemicals used are dextran sulfate sodium (DSS) and trinitrobenzene sulfonic acid (TNBS). The dextran sulfate sodium model of experimental colitis is characterized by a shrinkage of the colon's length, macrosopic inflammatory damage, diarrhea, a discontinuous pattern of mucosal epithelial damage in the distal colon with infiltration of inflammatory cells that include macrophages and neutrophils into the mucosa and submucosa (Blumberg, R. S., Saubermann, L. J., and Strober, W. Animal models of mucosal inflammation and their relation to human inflammatory bowel disease. Current Opinion in Immunology, 11: 648-656, 1999; […]., and Nakaya, R. A novel method of induction of reliable experimental acute and chronic colitis in mice. […] Cooper, […]., and […]. Clinicopathologic study of dextran sulfate sodium experimental murine colitis. Lab Invest., 69: 238-249, 1993; […]., Bajaj-Elliott, M., MacDonald, […]., and Buchler, M. W. Characterization of acute murine dextran sodium sulphate colitis: Cytokine profile and dose dependency. Digestion, 62: 240-248, 2000; […]., Husband, A. J., and Doe, W. F. The inflammatory infiltrate in the acute stage of the dextran sulphate sodium induced colitis: B cell response differs depending on the percentage of DSS used to induce it. BMC Clinical Pathology, 1: 3-13, 2001; and Diaz-Granados, Howe, K., Lu, J, and […]. Dextran sulfate sodium-induced colonic histopathology, but not altered epithelial ion transport, is reduced by inhibition of phosphodiesterase activity. Amer. J. Pathology, 156: 2169-2177, 2000). Balb/c female mice and […]/6 mice were used in these studies. […] When […]/6 mice were used, a solution of tap water containing 4% DSS was used. During the ensuing 7-day period, test animals were administered a preparation of an experimental compound. This material may be administered orally or intraperitoneally or subcutaneously, once or twice daily. At the end of this period, the animals were euthanized and their colons were collected for further analysis. Among the parameters analyzed were the length of the colon starting from the anus to the top of the cecum, the consistency of any stools found within the colon, and the gross macroscopic appearance of the colon. The distal colon between the 1st and the 4th centimeter was removed and placed in 10% neutral buffered formalin for later histological analysis. For the following parameters, colon length, stool consistency and appearance, and macroscopic damage a scoring system is used to describe the changes. […] Thus, […] Histological analyses of tissues consisted of staining paraffin-embedded tissue sections with hematoxylin-eosin dye. Epithelial damage scores were determined as the fraction of the tissue section showing damaged epithelium. […] Statistical analysis performed in Graphpad Prism 4.0 using ANOVA with Dunnet's or Bonferroni's multiple comparison's test.

[3] = system: TNBS induced colitis; test: Trinitrobenzenesulfonic acid (TNBS) Induced Colitis, rats; type: in vivo, Male Wistar rats; conditions: rat
Excerpt: In Vivo Model: Trinitrobenzenesulfonic acid (TNBS) Induced Colitis The TNBS model of experimental colitis (Bobin-Dubigeon, C., Collin, X., Grimaud, N., Robert, J-M., Guillaume Le Baut, G., and Petit, J-Y. Effects of tumour necrosis factor-a synthesis inhibitors on rat trinitrobenzene sulphonic acid-induced chronic colitis. Eur. J. […] These symptomatic signs in the above—mentioned models are similar to what occur in human colitis. Male Wistar rats (200-250 g) are inoculated with 500 microliters of a solution of 10 to 20 mg of TNBS in 30% ethanol delivered intracolonically via catheter or ball-tipped gavage needle to the 8th cm from the anus. When Balb/c female mice (8-12 weeks of age) were used, the inoculation volume was 50 microliters containing 2-3 mg of TNBS in 30% ethanol delivered intracolonically via catheter or ball-tipped gavage needle to the 4th cm from the anus. During the ensuing 7 days, test animals were administered a preparation of an experimental compound. This material may be administered orally, subcutaenously or intraperitoneally, once or twice daily. At the end of this period, the animals were euthanized and their colons were collected for further analysis. Among the parameters analyzed were the length of the colon starting from the anus to the top of the cecum, the weight of the colon, the consistency of any stools found within the colon, the presence or absence of intraperitoneal adhesions on the serosal surfacr of the intestin, and the gross macroscopic appearance of the colon. […] In rats, the distal colon between the 5th and the 8th centimeter is dissected and placed in 10% neutral buffered formalin for later histological analysis. In mice, the 1st to the 4th cm was collected for histological analyses. For the following parameters—colon length, colon weight, stool consistency and appearance and macroscopic damage—a scoring system was used to describe the changes. The four scores for each animal were added to provide a Total Score. […] For the presence of blood in stool, one point was added to scores <3. […] Histological analyses of tissues consisted of staining paraffin-embedded tissue sections with hematoxylin-eosin dye. Epithelial damage scores were determined as the fraction of the tissue section showing damaged epithelium. […] Statistic analyses for these experiments performed with Graphpad Prism 4.0, using ANOVA, with Dunnets or Bonferroni's multiple comparisons test.

[4] = system: eosinophil peroxidase levels in ear punches; test: PMA-Induced Inflammation in Mouse Ear Skin and Measurement of Eosinophil Peroxidase; type: in vivo, BALB/C mice; conditions: total dose 5 mg/kg po bid; ear punches 24 h after PMA; 5 mg/kg
Method: Phorbol 12-Myristate 13-Acetate (PMA)-Induced Inflammation in Mouse Ear Skin and Measurement of Eosinophil Peroxidase
Phorbol 12-myristate 13-acetate (PMA) when applied to skin, generates a vigorous recruitment of immune cells to the site of application. Over a 24 hour period, there is accumulation of fluid and cells to the inflamed site, and thus is a general indicator of an inflammatory response. Among the recruited cells are eosinophils and neutrophils. Eosinophils can migrate into an inflamed or infected tissue via alpha 4 beta 1 integrin interactions with vascular cell adesion molecule-1 (VCAM-1) counter-receptors on vascular endothelial cells, and via alpha 4 beta 7 integrin to mucosal addressin cellular adhesion molecule on vascular endothelial cells in the gastrointestinal tract and mesenteric system. The recruited esoinophils can be quantified by measuring the presence of eosinophil peroxidase in a sample of the homogenized tissue.
Female BALB/C mice are ordered at 6 weeks of age and 16-18 grams from Charles River were used between 6-10 weeks of age. The animals were randomly assigned to groups of 10 (5/box) and housed in groups in plastic cages in a room with 12 h light-dark cycle and controlled temperature and humidity. They received food and water ad libitum.
Phorbol 12-myristate 13-acetate (PMA) was dissolved as 5 mg per mL stock in dimethyl sulfoxide (DMSO) and stored frozen as 20 microliter aliquots. For application to mouse ears, each aliquot was diluted in 2 mL with acetone.
The right ear of each mouse was treated topically with 20 microliters of acetone solution (10 microliters to each side of the ear) containing either 1 microgram of phorbol 12-myristate 13-acetate (PMA) or acetone alone.
Drugs that were tested orally were administered at −1 and +3 hours relative to PMA application.
Mice were sacrificed 24 h after PMA application. The right ear was punched with a 6 mm tissue punch and the tissue was placed in a tube on dry ice and kept frozen until extraction.
One tablet of phosphate citrate buffer was dissolved with urea hydrogen peroxide in 100 ml of water in which one tablet containing 60 mg of o-phenylenediaminedihydrochloride was added.
Ear tissue samples were homogenized in 2 ml of HTAB for 15 sec at speed 5.5 with a Polytron (large head) (Brinkman Instruments). The homogenate was stored at −20° C. until assayed. […]
Samples were typically tested at either a 1:2 or 1:4 dilution made with HTAB. […] Absorbance was read at 490 nm for the specific with subtraction of a 650 nm noise signal using a Thermomax 96-well spectrophotmetric plate reader (Molecular Devices). […]
The inhibition of PMA-induced ear edema was measured by eosinophil peroxidase levels in ear punches. […]

[5] = 30 mg/kg po bid, C57 Black/6 mice
[6] = 60 mg/kg po bid, C57 Black/6 mice

Compound | Lymphoycte Counts % of Vehicle Control ([1]; 3 mg/kg po) [%] | Total Leukocyte Count % of Vehicle Control ([1]; 3 mg/kg po) [%] | Lymphoycte Counts % of Vehicle Control ([1]; 10 mg/kg po) [%] | Total Leukocyte Count % of Vehicle Control ([1]; 10 mg/kg po) [%] | Lymphoycte Counts % of Vehicle Control ([1]; 30 mg/kg po) [%] | Total Leukocyte Count % of Vehicle Control ([1]; 30 mg/kg po) [%] | % Inhibition of Epithelial Damage Score [2, 5] [%] | % Inhibition of Total Macroscopic Score [2, 5] [%] | % Inhibition of Total Macroscopic Score ([2]; 30 mg/kg po bid, balb/c mice) [%] | % Inhibition of Epithelial Damage Score [2, 6] [%] | % Inhibition of Total Macroscopic Score [2, 6] [%] | % Inhibition of Epithelial Damage Score ([2]; 60 mg/kg po bid, balb/c mice) [%] | % Inhibition of Total Macroscopic Score ([2]; 60 mg/kg po bid, balb/c mice) [%] | % Inhibition of Epithelial Damage Score ([3]; 30 mg/kg po bid) [%] | % Inhibition of Total Macroscopic Score ([3]; 30 mg/kg po bid) [%] | % Inhibition of Epithelial Damage Score ([3]; 60 mg/kg po bid) [%] | % Inhibition of Total Macroscopic Score ([3]; 60 mg/kg po bid) [%] | % Inh. of Eosinophil Peroxidase [4]
COc1cnn(CCO)c(=O)c1-c1ccc(C[C@H](NC(=O)OC(C)(C)C)C(=O)OCCO)cc1 [Cpd 231] | 114.5 | 110.7 | 94.0 | 98.0 | 88.7 | 86.9 | 23.91 | 13.4 | 43.8 | 53.9 | 23.4 | 36.5 | 47.7 | 24.69 | 19.33 | 38.64 | 5.455 | –
C[C@@H]1C[C@H]2[C@@H]3CCC4=CC(=O)C=C[C@]4(C)[C@@]3(F)[C@@H](O)C[C@]2(C)[C@@]1(O)C(=O)CO [dexamethasone] | – | – | – | – | – | – | – | – | – | – | – | – | – | – | – | – | – | 83.6% and 109.0%

From patent publication US20050192279A1, “Pyridazinones as antagonists of alpha4 integrins” (priority 2004, published 2005)
